# Earlier results as cited in article PMC7914841, “Systemic Delivery of hGhrelin Derivative by Lyophilizate for Dry Powder Inhalation System in Monkeys” (Pharmaceutics, 2021).
# Where no end group is shown, it is not given here. The star is where a group is joined. Octanoyl = CCCCCCCC(=O)*
# Tested on: growth hormone (GH) release
# Settings: healthy humans, intravenously injected
substance,measurement,value
"ghrelin: peptide hormone of 28 amino acids, O-n-octanoylated at the 3rd serine residue (GSS(Octanoyl)FLSPEHQRVQQRKESKKPPAKLQPR; UniProt Q9UBU3 24-51, looked up)","ratio of AUC of GH, 5 µg/kg vs 1 µg/kg",1.3–1.6 times
